Data published in patent publication US20090176817A1, “Method of Treatment of Diarrhea-Predominant Irritable Bowel Syndrome in a Subject” (priority 2005, published 2009).
Like-named read-outs stand apart in the source and are kept apart here.

Columns and labels:
[1] = test system: healthy, elderly subjects; experiment: Study K.241.5013: gastric emptying time, elderly, 4 mg TID; format: in vivo, human; conditions: 4 mg TID oral 14 days, mean (SD)
Source text: The effect of cilansetron on gastric emptying time and colonic transit time has been studied in 1 clinical study in healthy young subjects and 2 studies in elderly subjects. For measurement of gastric emptying time, breath samples for the determination of the ^12C/^13C ratio were taken on the last day of each treatment period immediately after ingestion of a ^13C labeled meal. The patients' breath was collected in separate 15-minute intervals, for four hours in total. ^13CO2 measurements were performed with an isotope ratio mass spectrometer. The half-life (TK) and lag-time (Tlag), which describe the duration of gastric emptying, were used as the primary parameters to evaluate gastric emptying time. In all 3 studies, colonic transit time was measured by administration of radio-opaque markers for the last six days of each treatment period, followed by a single abdominal X-ray image at 24 hours after ingestion of the last set of markers. The numbers of markers within the colon were used to calculate segmental (right colon, left colon, and rectosigmoid) and total colonic transit time.
Studies K.241.5013 and K.241.5014 were randomized, double-blind, placebo-controlled, 2-way crossover studies in 8 healthy male and female elderly subjects, each (ITT population, aged 64-83 years in K.241.5013 and 66-84 years in K.241.5014). […]

[2] = test system: diarrhea-predominant IBS subjects; format: in vivo, human; conditions: for Percentage of Subjects Who Worsened from Baseline: Daily Abdominal Pain / Percentage of Subjects Who Worsened from Baseline: Daily Urgency: S241.3.006, observed value
Source text: Studies S24 1.3.OO6, S24 1.3.0 1 1, and S24 1.3.009 used the following efficacy measurements: • The subjects answered the following three questions with “yes” or “no” using a phone diary at the end of each week: • a) During the last week, did you experience adequate relief of your IBS symptoms, such as abdominal pain, abdominal discomfort, abnormal bowel habits? • b) During the last week, did you experience adequate relief of your abdominal pain and/or discomfort? • c) During the last week, did you experience adequate relief of your abnormal bowel habits? • The subjects rated the following symptoms using the phone diary at the end of each day: • abdominal pain/discomfort (five-point scale); • stool consistency (seven-point Bristol Stool Scale); • stool frequency (number of bowel movements each day); • urgency (five-point scale); • straining (yes or no); • feeling of incomplete defecation (yes or no); • bloating or feeling of abdominal distension (five-point scale). • In Studies S241 A006 and S241.3.009, subjects completed the IBS-QOL Survey at Baseline (Day 1) and at the end of treatment. In Study S24 1.3.0 1 1, subjects completed the IBS-QOL Survey at Baseline (Day 1), at the end of the three-month treatment period, and at the end of rerandomized treatment.
Other secondary efficacy parameters for all three studies included: • Responder rate for the weekly diary questions on adequate relief at each month, where a responder for a month (monthly responder) was defined as a subject who answered the weekly question with “yes” at least twice for that month. The responder rate was the percentage of responders within a treatment group. The all-month responder rate for the weekly diary questions on adequate relief was also evaluated, where an all-month responder was defined as a subject who answered the weekly question with “yes” at least twice for each month. The all-month responder rate was the percentage of all-month responders within a treatment group; • Adequate relief rate for the weekly diary questions was calculated for each subject as the number of weekly assessments with adequate relief (“yes”) divided by the total number of weekly assessments; • Percentage of subjects with adequate relief for the weekly diary questions at each week; • Daily diary questions regarding abdominal pain/discomfort (five-point scale), stool consistency (seven-point scale), stool frequency (number of bowel movements each day), straining (yes or no), urgency (five-point scale), feeling of incomplete evacuation (yes or no), and bloating or feeling of abdominal distention (five-point scale); • QOL data assessed by the IBS-QOL questionnaire; and • Question to determine the interruption of activities.
The deterioration of effect analyses focus is to evaluate the percentage of subjects who worsened from Baseline. Clinical limits were set in order to capture a clinically meaningful number of subjects who worsened from Baseline. This clinical limit was also used in identifying those who improved from Baseline which led to a much larger percentage of subjects meeting this criterion. Percentages of subjects who improved from Baseline for these analyses are discussed in order to understand the context of the percentage of subjects who worsened.

[3] = both, human, in vivo
Protocol: Two randomized, double-blind, placebo controlled, balanced incomplete block design, crossover studies evaluated the single- and multiple-dose pharmacokinetics of oral cilansetron over a 8 mg to 32 mg dose range. In both studies, subjects were randomized to receive two of three treatments during 2 treatment periods. In one study (12 male and 13 female subjects, aged 23 to 36 years), subjects received 8 mg cilansetron, 16 mg cilansetron, or placebo, while in another study (12 males and 13 females, aged 23 to 41 years), subjects received 16 mg cilansetron, 32 mg cilansetron, or placebo. During each treatment period, subjects received a single dose of their assigned treatment on the first day, followed by a 3-day washout, after which they received the same treatment TID for 5 days.
There was a 5-6 day washout period between treatment periods. Doses on the mornings of pharmacokinetic days were administered under fasted conditions. Serial blood sampling and urine collection was performed up to 12 hours following morning dosing on the first day (single dose) and on the last multiple dosing day of each treatment period, and cilansetron pharmacokinetic parameters were evaluated.
In two randomized, double-blind, placebo controlled, balanced incomplete block design, crossover studies evaluating the single- and multiple-dose pharmacokinetics of oral cilansetron over a 8 mg to 32 mg dose range, subjects were randomized to receive two of three treatments during 2 treatment periods. In Study S.241.1.101; (12 male and 13 female subjects, aged 23 to 36 years), subjects received 8 mg cilansetron, 16 mg cilansetron, or placebo, while in Study S.24 1.1.102; (12 males and 13 females, aged 23 to 41 years), subjects received 16 mg cilansetron, 32 mg cilansetron, or placebo. During each treatment period, subjects received a single dose of their assigned treatment on the first day, followed by a 3-day washout, after which they received the same treatment TID for 5 days. There was a 5-6 day washout period between treatment periods. Doses on the mornings of pharmacokinetic days were administered under fasted conditions. Serial blood sampling and urine collection was performed up to 12 hours following morning dosing on the first day (single dose) and on the last multiple dosing day of each treatment period, and cilansetron pharmacokinetic parameters were evaluated.

clinical = conditions: both, human, in vivo, po, 16 mg
Protocol: In a randomized, double-blind, placebo-controlled, 2-way crossover study in 9 male and 9 female healthy subjects (ITT population, aged 21-39 years), subjects were randomized to receive 2 treatments (cilansetron 16 mg tablet and placebo) during the 2 treatment periods. During each treatment period, subjects received a single dose of their assigned treatment on the first day (Day 1), after which they received the same treatment TID for 4 days (Days 2-5). There was a 10-day washout period between treatment periods. Subjects were fasted for at least 2 hours before and following each dose, and heavy physical activity was restricted. Serial 12-lead ECGs was recorded up to 24 hours following dosing on Day 1 (single dose) and on the last day (Day 5) of each treatment period. Heart rate and ECG intervals (RR, PR, QRS, and QT) were measured electronically, but were manually verified and corrected if needed by the investigator. QT intervals were corrected (QTc) electronically for heart rate using the Bazett's correction. Mean and maximum QTc intervals were calculated over different time intervals postdose and were compared between treatments using an ANOVA accounting for sequence, gender, subject within sequence and gender, period, and treatment effects.

## Cc1nccn1C[C@H]1CCc2c(c3cccc4c3n2CCC4)C1=O [Cilansetron, (R)-(−)-4,5,6,8,9,10-hexahydro-10-[(2-methyl-1H-imidazol-1-yl)methyl]-11H-pyrido-[3,2,1-jk]-carbazol-11-one]
[1]
  gastric emptying time Tlag: 122 (24) min
  gastric emptying time T½: 183 (32) min
[2]; 2 mg TID
  Mean number of stools per day at end of treatment: 2.45 stools per day
[2]; Weeks 1-2, 2 mg TID
  Percentage of Subjects Who Worsened from Baseline: Daily Abdominal Pain: 13%
  Percentage of Subjects Who Worsened from Baseline: Daily Urgency: 5%
[2]; Weeks 3-4, 2 mg TID
  Percentage of Subjects Who Worsened from Baseline: Daily Abdominal Pain: 8%
  Percentage of Subjects Who Worsened from Baseline: Daily Urgency: 5%
[2]; Weeks 5-6, 2 mg TID
  Percentage of Subjects Who Worsened from Baseline: Daily Abdominal Pain: 9%
  Percentage of Subjects Who Worsened from Baseline: Daily Urgency: 8%
[2]; Weeks 7-8, 2 mg TID
  Percentage of Subjects Who Worsened from Baseline: Daily Abdominal Pain: 7%
  Percentage of Subjects Who Worsened from Baseline: Daily Urgency: 5%
[2]; Weeks 9-10, 2 mg TID
  Percentage of Subjects Who Worsened from Baseline: Daily Abdominal Pain: 8%
  Percentage of Subjects Who Worsened from Baseline: Daily Urgency: 8%
[2]; Weeks 11-12, 2 mg TID
  Percentage of Subjects Who Worsened from Baseline: Daily Abdominal Pain: 8%
  Percentage of Subjects Who Worsened from Baseline: Daily Urgency: 8%
[2]; Weeks 1-2
  Subjects worsened from Baseline, daily abdominal pain: 13%
  Subjects worsened from Baseline, daily urgency: 5%
[2]; end of treatment
  Median rate of urgency-free days: 0.27
[2]; in vivo
  Bloating or abdominal distention score, change from Baseline at end of treatment: −0.48
  Daily abdominal pain/discomfort score, change from Baseline at end of treatment: −0.69
  Daily stool consistency score, change from Baseline at end of treatment: −1.22
  Daily urgency score, change from Baseline at end of treatment: −0.87
  Feeling of incomplete evacuation, change from Baseline at end of treatment: −0.18
  Mean stool consistency score at end of treatment: 4.10
  Mean straining, change from Baseline at end of treatment: 0.09
  Stools per day, change from Baseline at end of treatment: −0.98
[2]; three-month period
  Median rate of pain-free days: 0.19
  Median rate of urgency-free days: 0.32
[3]
  Dose excreted unchanged in urine: less than 1%
  Intrasubject % CV: 23-51%
  Mean AUC(0-τ) (multiple dose) to AUC(0-inf) (single dose) ratios: 81-94%
[3]; 8 mg
  AUC Ratio (90% CI): 84 (46, 154) %
  Cmax Ratio (90% CI): 82 (42, 160) %
  DN-AUC: 14.0 (49) ng · h/mL
[3]; 16 mg
  AUC Ratio (90% CI): 58 (32, 103) %
  Cmax Ratio (90% CI): 54 (29, 103) %
[3]; po, 8 mg
  AUC Ratio (90% CI): 81 (46, 145) %
  Cmax Ratio (90% CI): 77 (46, 128) %
[3]; po, 16 mg
  AUC Ratio (90% CI): 82 (47, 142) %
  Cmax Ratio (90% CI): 79 (49, 130) %
clinical
  Tmax: 3 h
